Laboratory results published in patent US4753953A, “Pyridonecarboxylic acid derivatives and antibacterial pharmaceutical compositions thereof” (priority 1985, dated 1988).
≈ marks a conversion by molar mass, not a printed value. Where two headings read alike, the source gives them in different places.

Columns and labels:
[1] = system: Staphylococcus aureus 209 P; test: MIC, in vitro antibacterial activity (standard strains); format: cell-based; details: Staphylococcus aureus, 209P; 10^6 cells/ml; Gram +; read-out: MIC
S. aureus Smith = test: as above; format: cell-based, Staphylococcus aureus; details: Staphylococcus aureus; 10^6 cells/ml; Gram +; read-out: MIC
[2] = system: S. aureus IID 670 (Terajima); test: as above; format: cell-based, Staphylococcus aureus; details: Staphylococcus aureus, IID670; 10^6 cells/ml; Gram +; read-out: MIC
[3] = system: Streptococcus pyogenes (S-8); test: as above; format: cell-based; details: Streptococcus pyogenes; 10^6 cells/ml; Gram +; read-out: MIC
S. pyogenes IID 692 = test: as above; format: cell-based, Streptococcus pyogenes; details: Streptococcus pyogenes, IID692; 10^6 cells/ml; Gram +; read-out: MIC
S. pneumoniae IID 552 = test: as above; format: cell-based; details: Streptococcus pneumoniae, IID552; 10^6 cells/ml; Gram +; read-out: MIC
E. faecalis IID 682 = test: as above; format: cell-based; details: Enterococcus faecalis, IID682; 10^6 cells/ml; Gram +; read-out: MIC
E. coli ATCC 10536 = test: as above; format: cell-based, Escherichia coli; details: Escherichia coli, ATCC10536; 10^6 cells/ml; Gram -; read-out: MIC
E. coli ML 4707 = test: as above; format: cell-based, Escherichia coli; details: Escherichia coli, ML4707, 10^6 cells/ml; Gram -; Table 1; read-out: MIC
[4] = system: Morganella morganii IID 602; test: as above; format: cell-based; details: Morganella morganii, IID602; 10^6 cells/ml; Gram -; read-out: MIC
K. pneumoniae 1-220S = test: as above; format: cell-based, Klebsiella pneumoniae; details: Klebsiella pneumoniae, 1220S; 10^6 cells/ml; Gram -; read-out: MIC
[5] = system: Enterobacter cloacae IID 977; test: as above; format: cell-based; details: Enterobacter cloacae, IID977; 10^6 cells/ml; Gram -; read-out: MIC
[6] = system: Citrobacter freundii IID 976; test: as above; format: cell-based; details: Citrobacter freundii, IID976; 10^6 cells/ml; Gram -; read-out: MIC
[7] = system: Salmonella enteritidis IID 604; test: as above; format: cell-based; details: Salmonella enterica; 10^6 cells/ml; Gram -; read-out: MIC
P. aeruginosa IFO 12689 = test: as above; format: cell-based, Pseudomonas aeruginosa; details: Pseudomonas aeruginosa, IFO12689
P. aeruginosa IID 1210 = test: as above; format: cell-based, Pseudomonas aeruginosa; details: Pseudomonas aeruginosa, IID1210; 10^6 cells/ml; Gram -; read-out: MIC
P. cepacia GIFU 518 = test: as above; format: cell-based; details: Burkholderia cepacia, GIFU518
[8] = system: Yersinia enterocolitica IID 981; test: as above; format: cell-based; details: Yersinia enterocolitica, IID981; 10^6 cells/ml; Gram -; read-out: MIC
[9] = system: Alcaligenes faecalis 0114002; test: as above; format: cell-based; details: Alcaligenes faecalis, 0114002; 10^6 cells/ml; Gram -; read-out: MIC
B. fragilis 0558 = test: as above; format: cell-based, Bacteroides fragilis; details: Bacteroides fragilis, 0558; 10^6 cells/ml; Gram -; read-out: MIC
B. fragilis 25285 = test: as above; format: cell-based, Bacteroides fragilis; details: Bacteroides fragilis, 25285; 10^6 cells/ml; Gram -; read-out: MIC
B. distasonis 8503 = test: as above; format: cell-based; details: Parabacteroides distasonis, 8503; 10^6 cells/ml; Gram -; read-out: MIC
[10] = system: B. thetaiotaomicron (0661); test: as above; format: cell-based; details: Bacteroides thetaiotaomicron; 10^6 cells/ml; Gram -; read-out: MIC
[11] = system: Fusobacterium mortiferum 4249; test: as above; format: cell-based; details: Fusobacterium mortiferum, 4249; 10^6 cells/ml; Gram -; read-out: MIC
F. necrophorum S-45 = test: as above; format: cell-based; details: Fusobacterium necrophorum, S45; 10^6 cells/ml; Gram -; read-out: MIC
[12] = system: Eubacterium lentum GAI 5242; test: as above; format: cell-based; details: Eggerthella lenta, GAI5242; 10^6 cells/ml; Gram +; read-out: MIC
[13] = system: Peptococcus magnus KY 017; test: as above; format: cell-based; details: Finegoldia magna, KY017; 10^6 cells/ml; Gram +; read-out: MIC
[14] = system: Clostridium difficile I-E; test: as above; format: cell-based; details: Clostridioides difficile; 10^6 cells/ml; Gram +
C. perfringens KYA 13123 = test: microbe, parasite or virus in culture; format: cell-based; details: Clostridium perfringens, KYA13123
[15] = system: Peptostreptococcus anaerobius KYA 27337; test: MIC, in vitro antibacterial activity (standard strains); format: cell-based; details: Peptostreptococcus anaerobius, KYA27337; 10^6 cells/ml; Gram +; read-out: MIC
Pst. micros UPI 5464-1 = test: as above; format: cell-based; details: Parvimonas micra, UPI54641; 10^6 cells/ml; Gram +; read-out: MIC
[16] = system: Veillonella parvula KYA 10790; test: as above; format: cell-based; details: Veillonella parvula, KYA10790; 10^6 cells/ml; Gram -; read-out: MIC
[17] = 10^6 cells/ml, Gram -, read-out: MIC

SMILES | MIC [1] [µg/mL] | MIC (S. aureus Smith) [µg/mL] | MIC [2] [µg/mL] | MIC [3] [µg/mL] | MIC (S. pyogenes IID 692) [µg/mL] | MIC (S. pneumoniae IID 552) [µg/mL] | MIC (E. faecalis IID 682) [µg/mL] | MIC (E. coli ATCC 10536) [µg/mL] | MIC (E. coli ML 4707) [µg/mL] | MIC [4] [µg/mL] | MIC (K. pneumoniae 1-220S) [µg/mL] | MIC [5] [µg/mL] | MIC [6] [µg/mL] | MIC [7] [µg/mL] | MIC (P. aeruginosa IID 1210) [µg/mL] | MIC (P. cepacia GIFU 518) [µg/mL] | MIC [8] [µg/mL] | MIC [9] [µg/mL] | MIC (B. fragilis 0558) [µg/mL] | MIC (B. fragilis 25285) [µg/mL] | also measured
CCn1cc(C(=O)O)c(=O)c2cc(F)c(N3C[C@@H](N)[C@@H](C)C3)c(Cl)c21 (relative stereo) [Example 23, 7-(cis-3-Amino-4-methyl-1-pyrrolidinyl)-8-chloro-1-ethyl-6-fluoro-1,4-dihydro-4-oxo-3-quinolinecarboxylic acid] | 0.1 (≈ 0.272 µM) | 0.2 (≈ 0.544 µM) | 0.2 (≈ 0.544 µM) | 0.78 (≈ 2.12 µM) | 0.78 (≈ 2.12 µM) | 0.78 (≈ 2.12 µM) | 0.78 (≈ 2.12 µM) | 0.05 (≈ 0.136 µM) | 0.05 (≈ 0.136 µM) | 0.1 (≈ 0.272 µM) | 0.1 (≈ 0.272 µM) | 0.1 (≈ 0.272 µM) | 0.05 (≈ 0.136 µM) | 0.1 (≈ 0.272 µM) | 6.25 (≈ 17 µM) | 0.78 (≈ 2.12 µM) | 0.05 (≈ 0.136 µM) | 1.56 (≈ 4.24 µM) | 0.78 (≈ 2.12 µM) | 0.78 (≈ 2.12 µM) | MIC (P. aeruginosa IFO 12689; [17]): 1.56 µg/mL (≈ 4.24 µM); MIC (B. distasonis 8503): 3.13 µg/mL (≈ 8.51 µM); MIC [10]: 1.56 µg/mL (≈ 4.24 µM); MIC [11]: 1.56 µg/mL (≈ 4.24 µM); MIC (F. necrophorum S-45): 1.56 µg/mL (≈ 4.24 µM); MIC [12]: 1.56 µg/mL (≈ 4.24 µM); MIC [13]: 0.78 µg/mL (≈ 2.12 µM); MIC [14]: 6.25 µg/mL; MIC (C. perfringens KYA 13123): 0.78 µg/mL (≈ 2.12 µM); MIC [15]: 1.56 µg/mL (≈ 4.24 µM); MIC (Pst. micros UPI 5464-1): 0.78 µg/mL (≈ 2.12 µM); MIC [16]: 0.78 µg/mL (≈ 2.12 µM)
C[C@H]1CN(c2c(F)cc3c(=O)c(C(=O)O)cn(CCF)c3c2F)C[C@H]1N (relative stereo) [Example 25, 7-(cis-b 3-Amino-4-methyl-1-pyrrolidinyl)-6,8-difluoro-1-(2-fluoroethyl)-1,4-dihydro-4-oxo-3-quinolinecarboxylic acid] | 0.2 (≈ 0.542 µM) | 0.39 (≈ 1.06 µM) | 0.39 (≈ 1.06 µM) | 0.78 (≈ 2.11 µM) | 0.78 (≈ 2.11 µM) | 0.78 (≈ 2.11 µM) | 0.78 (≈ 2.11 µM) | 0.05 (≈ 0.135 µM) | 0.05 (≈ 0.135 µM) | 0.1 (≈ 0.271 µM) | 0.2 (≈ 0.542 µM) | 0.1 (≈ 0.271 µM) | 0.1 (≈ 0.271 µM) | 0.1 (≈ 0.271 µM) | 6.25 (≈ 16.9 µM) | 1.56 (≈ 4.22 µM) | 0.1 (≈ 0.271 µM) | 0.78 (≈ 2.11 µM) | 3.13 (≈ 8.47 µM) | 3.13 (≈ 8.47 µM) | MIC (P. aeruginosa IFO 12689; [17]): 1.56 µg/mL (≈ 4.22 µM); MIC (B. distasonis 8503): 6.25 µg/mL (≈ 16.9 µM); MIC [10]: 6.25 µg/mL (≈ 16.9 µM); MIC [11]: 3.13 µg/mL (≈ 8.47 µM); MIC (F. necrophorum S-45): 3.13 µg/mL (≈ 8.47 µM); MIC [12]: 1.56 µg/mL (≈ 4.22 µM); MIC [13]: 1.56 µg/mL (≈ 4.22 µM); MIC [14]: 6.25 µg/mL; MIC (C. perfringens KYA 13123): 0.78 µg/mL (≈ 2.11 µM); MIC [15]: 3.13 µg/mL (≈ 8.47 µM); MIC (Pst. micros UPI 5464-1): 0.78 µg/mL (≈ 2.11 µM); MIC [16]: 0.78 µg/mL (≈ 2.11 µM)
C[C@H]1CN(c2c(F)cc3c(=O)c(C(=O)O)cn(CCF)c3c2Cl)C[C@H]1N (relative stereo) [Example 27, 7-(cis-3-Amino-4-methyl-1-pyrrolidinyl)-8-chloro-6-fluoro-1-(2-fluoroethyl)-1,4-dihydro-4-oxo-3-quinolinecarboxylic acid] | 0.2 (≈ 0.518 µM) | 0.2 (≈ 0.518 µM) | 0.39 (≈ 1.01 µM) | 0.78 (≈ 2.02 µM) | 0.78 (≈ 2.02 µM) | 0.78 (≈ 2.02 µM) | 0.78 (≈ 2.02 µM) | 0.05 (≈ 0.13 µM) | 0.05 (≈ 0.13 µM) | 0.1 (≈ 0.259 µM) | 0.2 (≈ 0.518 µM) | 0.1 (≈ 0.259 µM) | 0.1 (≈ 0.259 µM) | 0.1 (≈ 0.259 µM) | 6.25 (≈ 16.2 µM) | 0.78 (≈ 2.02 µM) | 0.1 (≈ 0.259 µM) | 0.78 (≈ 2.02 µM) | 1.56 (≈ 4.04 µM) | 1.56 (≈ 4.04 µM) | MIC (P. aeruginosa IFO 12689): 3.13 µg/mL (≈ 8.11 µM); MIC (B. distasonis 8503): 6.25 µg/mL (≈ 16.2 µM); MIC [10]: 3.13 µg/mL (≈ 8.11 µM); MIC [11]: 1.56 µg/mL (≈ 4.04 µM); MIC (F. necrophorum S-45): 1.56 µg/mL (≈ 4.04 µM); MIC [12]: 0.78 µg/mL (≈ 2.02 µM); MIC [13]: 0.78 µg/mL (≈ 2.02 µM); MIC [14]: 6.25 µg/mL; MIC (C. perfringens KYA 13123): 0.39 µg/mL (≈ 1.01 µM); MIC [15]: 1.56 µg/mL (≈ 4.04 µM); MIC (Pst. micros UPI 5464-1): 0.39 µg/mL (≈ 1.01 µM); MIC [16]: 0.39 µg/mL (≈ 1.01 µM)
